#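 Test compounds were applied to cells in 96-well plates for 48 hours at 5 doses. Here, GI50 denotes the concentration required for 50% inhibition of growth.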 Calls of active or inactive are those of the source. Rule as the data show it: active = GI50 up to about 1.1 µM and inactive = higher.
# How the values were obtained:
# Test in all cases: DTP human tumour cell line panel, 48 h
# Hs-578T = system: Hs-578T
# COLO 205 = system: COLO 205
# SK-MEL-28 = system: SK-MEL-28
# UACC-62 = system: UACC-62
# U-251 = system: U-251
# SN12C = system: SN12C
# SNB-19 = system: SNB-19
# SW-620 = system: SW-620
# NCI-H522 = system: NCI-H522
# HOP-62 = system: HOP-62
# HCT-116 = system: HCT-116
# SR = system: SR
# PC-3 = system: PC-3
# HCT-15 = system: HCT-15
# OVCAR-3 = system: OVCAR-3
# SF-539 = system: SF-539
# LOX IMVI = system: LOX IMVI
# TK-10 = system: TK-10
# CCRF-CEM = system: CCRF-CEM
# NCI-H226 = system: NCI-H226
# MCF7 = system: MCF7
# K562 = system: K562
# MDA-N = system: MDA-N
# RXF 393 = system: RXF 393
# HL-60 = system: HL-60
# NCI-H23 = system: NCI-H23
# 786-0 = system: 786-0
# OVCAR-4 = system: OVCAR-4
# OVCAR-8 = system: OVCAR-8
# Malme-3M = system: Malme-3M
# IGROV-1 = system: IGROV-1
# OVCAR-5 = system: OVCAR-5
# MDA-MB-435 = system: MDA-MB-435
# UO-31 = system: UO-31
# BT-549 = system: BT-549
# NCI-H460 = system: NCI-H460
# SK-MEL-5 = system: SK-MEL-5
# SNB-75 = system: SNB-75
# UACC-257 = system: UACC-257
# SK-MEL-2 = system: SK-MEL-2
# HCC 2998 = system: HCC 2998
# ACHN = system: ACHN
# DU-145 = system: DU-145
# A549 = system: A549
# MOLT-4 = system: MOLT-4
# SK-OV-3 = system: SK-OV-3
# CAKI-1 = system: CAKI-1
# M14 = system: M14
# NCI/ADR-RES = system: NCI/ADR-RES
# KM12 = system: KM12
# HT-29 = system: HT-29
# T47D = system: T47D
# EKVX = system: EKVX
# MDA-MB-231 = system: MDA-MB-231
# SF-268 = system: SF-268
# SF-295 = system: SF-295
# A498 = system: A498
# HOP-92 = system: HOP-92
# RPMI-8226 = system: RPMI-8226
smiles,measurement,setting,value
O=P1(C(O)c2ccccc2)N(Cc2ccccc2)[C@@H]2CCCC[C@H]2N1Cc1ccccc1 (some centres undefined),GI50,Hs-578T,20 µM (inactive)
same,GI50,COLO 205,14.8 µM (inactive)
same,GI50,SK-MEL-28,> 100 µM (inactive)
same,GI50,UACC-62,30.7 µM (inactive)
same,GI50,U-251,31.3 µM (inactive)
same,GI50,SN12C,20.9 µM (inactive)
same,GI50,SNB-19,56.2 µM (inactive)
same,GI50,SW-620,33.9 µM (inactive)
same,GI50,NCI-H522,20.7 µM (inactive)
same,GI50,HOP-62,40.8 µM (inactive)
same,GI50,HCT-116,27.4 µM (inactive)
same,GI50,SR,24.3 µM (inactive)
same,GI50,PC-3,24.5 µM (inactive)
same,GI50,HCT-15,34.5 µM
same,GI50,OVCAR-3,31.2 µM (inactive)
same,GI50,SF-539,21.5 µM (inactive)
same,GI50,LOX IMVI,17.5 µM (inactive)
same,GI50,TK-10,30.3 µM (inactive)
same,GI50,CCRF-CEM,34.8 µM (inactive)
same,GI50,NCI-H226,24.8 µM (inactive)
same,GI50,MCF7,34.6 µM (inactive)
same,GI50,K562,53.5 µM (inactive)
same,GI50,MDA-N,31.9 µM (inactive)
same,GI50,RXF 393,31.4 µM (inactive)
same,GI50,HL-60,22.3 µM (inactive)
same,GI50,NCI-H23,47.9 µM (inactive)
same,GI50,786-0,20.8 µM (inactive)
same,GI50,OVCAR-4,12.3 µM (inactive)
same,GI50,OVCAR-8,31 µM (inactive)
same,GI50,Malme-3M,30.7 µM (inactive)
same,GI50,IGROV-1,28.6 µM (inactive)
same,GI50,OVCAR-5,24.8 µM (inactive)
same,GI50,MDA-MB-435,23.2 µM (inactive)
same,GI50,UO-31,33 µM (inactive)
same,GI50,BT-549,50.2 µM (inactive)
same,GI50,NCI-H460,30.2 µM (inactive)
same,GI50,SK-MEL-5,30.3 µM (inactive)
same,GI50,SNB-75,18.4 µM (inactive)
same,GI50,UACC-257,21.4 µM (inactive)
same,GI50,SK-MEL-2,27 µM (inactive)
same,GI50,HCC 2998,20 µM (inactive)
same,GI50,ACHN,30.8 µM (inactive)
same,GI50,DU-145,35 µM (inactive)
same,GI50,A549,28.8 µM (inactive)
same,GI50,MOLT-4,19.6 µM (inactive)
same,GI50,SK-OV-3,58.2 µM (inactive)
same,GI50,CAKI-1,64.4 µM (inactive)
same,GI50,M14,24.8 µM (inactive)
same,GI50,NCI/ADR-RES,26.3 µM (inactive)
same,GI50,KM12,37.3 µM (inactive)
same,GI50,HT-29,15 µM (inactive)
same,GI50,T47D,21.9 µM (inactive)
same,GI50,EKVX,30.5 µM (inactive)
same,GI50,MDA-MB-231,21.3 µM (inactive)
same,GI50,SF-268,25.6 µM (inactive)
same,GI50,SF-295,23.6 µM (inactive)
COc1ccccc1NC(=O)C(=O)Cc1cnc2ccccc2n1,GI50,Hs-578T,> 100 µM (inactive)
same,GI50,A498,> 100 µM (inactive)
same,GI50,COLO 205,> 100 µM (inactive)
same,GI50,SK-MEL-28,> 100 µM (inactive)
same,GI50,UACC-62,> 100 µM (inactive)
same,GI50,U-251,> 100 µM (inactive)
same,GI50,HOP-92,> 100 µM (inactive)
same,GI50,SN12C,> 100 µM (inactive)
same,GI50,SNB-19,> 100 µM (inactive)
same,GI50,SW-620,> 100 µM (inactive)
same,GI50,HCT-116,> 100 µM (inactive)
same,GI50,SR,> 100 µM (inactive)
same,GI50,PC-3,> 100 µM (inactive)
same,GI50,HCT-15,> 100 µM
same,GI50,OVCAR-3,> 100 µM (inactive)
same,GI50,SF-539,> 100 µM (inactive)
same,GI50,LOX IMVI,> 100 µM (inactive)
same,GI50,CCRF-CEM,> 100 µM (inactive)
same,GI50,NCI-H226,> 100 µM (inactive)
same,GI50,MCF7,> 100 µM (inactive)
same,GI50,K562,> 100 µM (inactive)
same,GI50,MDA-N,> 100 µM (inactive)
same,GI50,RXF 393,> 100 µM (inactive)
same,GI50,HL-60,> 100 µM (inactive)
same,GI50,NCI-H23,> 100 µM (inactive)
same,GI50,786-0,> 100 µM (inactive)
same,GI50,OVCAR-4,> 100 µM (inactive)
same,GI50,OVCAR-8,> 100 µM (inactive)
same,GI50,OVCAR-5,> 100 µM (inactive)
same,GI50,MDA-MB-435,> 100 µM (inactive)
same,GI50,UO-31,> 100 µM (inactive)
same,GI50,BT-549,> 100 µM (inactive)
same,GI50,NCI-H460,> 100 µM (inactive)
same,GI50,RPMI-8226,> 100 µM (inactive)
same,GI50,SK-MEL-5,> 100 µM (inactive)
same,GI50,SNB-75,41 µM (inactive)
same,GI50,UACC-257,> 100 µM (inactive)
same,GI50,SK-MEL-2,> 100 µM (inactive)
same,GI50,HCC 2998,> 100 µM (inactive)
same,GI50,ACHN,> 100 µM (inactive)
same,GI50,DU-145,> 100 µM (inactive)
same,GI50,A549,> 100 µM (inactive)
same,GI50,MOLT-4,> 100 µM (inactive)
same,GI50,SK-OV-3,> 100 µM (inactive)
same,GI50,CAKI-1,> 100 µM (inactive)
same,GI50,M14,> 100 µM (inactive)
same,GI50,NCI/ADR-RES,> 100 µM (inactive)
same,GI50,KM12,> 100 µM (inactive)
same,GI50,HT-29,> 100 µM (inactive)
same,GI50,T47D,> 100 µM (inactive)
same,GI50,MDA-MB-231,> 100 µM (inactive)
same,GI50,SF-268,> 100 µM (inactive)
same,GI50,SF-295,> 100 µM (inactive)

# From ChEMBL document CHEMBL1201862, “PubChem BioAssay data set” (2004)
